Our source for the IC50 values is patent publication US10550105B2 (Ribon Therapeutics Inc., priority 2018, dated 2020).

The assay addresses PARP7 (Homo sapiens (Human), UniProt Q7Z3E1). Nature of the assay: Enzymatic assay for inhibition of PARP7: TR-FRET displacement of biotinylated Probe A from the TIPARP active site. Particulars: Table A-1. It counts as binding. Put shortly:
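Compound dose-response series were incubated with TIPARP and biotinylated Probe A, with a final 30 min step at 25 °C. TR-FRET was read at 320 nm excitation, 615/665 nm emission and 90 μs delay, using the 665/615 ratio to measure complex formation. % inhibition was fitted with a floating or fixed (1) Hill coefficient.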

Sequence of PARP7 (Q7Z3E1 whole entry): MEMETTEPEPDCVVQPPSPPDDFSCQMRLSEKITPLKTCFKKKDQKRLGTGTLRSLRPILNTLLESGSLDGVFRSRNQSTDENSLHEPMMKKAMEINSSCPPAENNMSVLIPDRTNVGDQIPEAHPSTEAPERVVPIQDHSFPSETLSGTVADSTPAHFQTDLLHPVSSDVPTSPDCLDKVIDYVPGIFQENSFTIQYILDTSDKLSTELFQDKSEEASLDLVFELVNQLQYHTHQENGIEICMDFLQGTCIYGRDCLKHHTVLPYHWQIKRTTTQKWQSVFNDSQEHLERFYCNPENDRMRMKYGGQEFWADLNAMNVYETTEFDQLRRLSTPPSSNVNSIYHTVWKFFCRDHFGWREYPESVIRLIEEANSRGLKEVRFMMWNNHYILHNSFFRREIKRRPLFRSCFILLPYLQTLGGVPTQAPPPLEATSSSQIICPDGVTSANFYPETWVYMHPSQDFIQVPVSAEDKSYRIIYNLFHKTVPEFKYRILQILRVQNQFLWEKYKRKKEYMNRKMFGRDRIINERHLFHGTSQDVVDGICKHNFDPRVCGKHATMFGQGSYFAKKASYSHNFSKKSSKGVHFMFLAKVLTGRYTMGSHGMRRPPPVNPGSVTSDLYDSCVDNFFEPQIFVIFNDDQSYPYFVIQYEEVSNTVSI

For the compound `C[C@@H](COCCC(=O)N1CCN(c2ncc(C(F)(F)F)cn2)CC1)Sc1cn[nH]c(=O)c1Br` [Example 700, (S)-4-Bromo-5-((1-(3-oxo-3-(4-(5-(trifluoromethyl)pyrimidin-2-yl)piperazin-1-yl)propoxy)propan-2-yl)thio)pyridazin-3(2H)-one], the IC50 was less than 100 nM.

For `C[C@@H](COCCC(=O)N1CCN(c2ncc(C(F)(F)F)cn2)CC1)Sc1cn[nH]c(=O)c1Cl` [Example 701, (S)-4-Chloro-5-((1-(3-oxo-3-(4-(5-(trifluoromethyl)pyrimidin-2-yl)piperazin-1-yl)propoxy)propan-2-yl)thio)pyridazin-3(2H)-one], the IC50 was less than 100 nM.

Compound `C[C@@H](CSCCC(=O)N1CCN(c2ncc(C(F)(F)F)cn2)CC1)Nc1cn[nH]c(=O)c1C(F)(F)F` [Example 702, (S)-5-((1-((3-Oxo-3-(4-(5-(trifluoromethyl)pyrimidin-2-yl)piperazin-1-yl)propyl)thio)propan-2-yl)amino)-4-(trifluoromethyl)pyridazin-3(2H)-one] registered an IC50 of less than 100 nM.

In the case of `C[C@H](CSCCC(=O)N1CCN(c2ncc(C(F)(F)F)cn2)CC1)Nc1cn[nH]c(=O)c1C(F)(F)F` [Example 703, (R)-5-((1-((3-Oxo-3-(4-(5-(trifluoromethyl)pyrimidin-2-yl)piperazin-1-yl)propyl)thio)propan-2-yl)amino)-4-(trifluoromethyl)pyridazin-3(2H)-one], the IC50 lay within 100 to 1000 nM.

`O=C(CCOC[C@@H](CCO)Oc1cn[nH]c(=O)c1C(F)(F)F)N1CCN(c2ncc(Cl)cn2)CC1` [Example 704, (R)-5-((1-(3-(4-(5-Chloropyrimidin-2-yl)piperazin-1-yl)-3-oxopropoxy)-4-hydroxybutan-2-yl)oxy)-4-(trifluoromethyl)pyridazin-3(2H)-one] yielded an IC50 of less than 100 nM.

The compound `O=C(CCOC[C@H](CCO)Oc1cn[nH]c(=O)c1C(F)(F)F)N1CCN(c2ncc(Cl)cn2)CC1` [Example 705, (S)-5-((1-(3-(4-(5-Chloropyrimidin-2-yl)piperazin-1-yl)-3-oxopropoxy)-4-hydroxybutan-2-yl)oxy)-4-(trifluoromethyl)pyridazin-3(2H)-one] gave an IC50 of 100 to 1000 nM.

The compound `C[C@@H](COCCC(=O)N1CCN(c2ncc(C(F)F)cn2)CC1)Nc1cn[nH]c(=O)c1C(F)(F)F` [Example 706, (S)-5-((1-(3-(4-(5-(Difluoromethyl)pyrimidin-2-yl)piperazin-1-yl)-3-oxopropoxy)propan-2-yl)amino)-4-(trifluoromethyl)pyridazin-3(2H)-one] showed an IC50 of less than 100 nM.

Take `C[C@@H](COCCC(=O)N1CCN(c2ncc(C(C)(F)F)cn2)CC1)Nc1cn[nH]c(=O)c1C(F)(F)F` [Example 707, (S)-5-((1-(3-(4-(5-(1,1-Difluoroethyl)pyrimidin-2-yl)piperazin-1-yl)-3-oxopropoxy)propan-2-yl)amino)-4-(trifluoromethyl)pyridazin-3(2H)-one]: the half-inhibitory concentration (IC50) was less than 100 nM.

In turn, `C[C@@H](COCCC(=O)N1CCN(c2ncc(C(F)(F)F)s2)CC1)Oc1cn[nH]c(=O)c1C(F)(F)F` [Example 708, (S)-5-((1-(3-Oxo-3-(4-(5-(trifluoromethyl)thiazol-2-yl)piperazin-1-yl)propoxy)propan-2-yl)oxy)-4-(trifluoromethyl)pyridazin-3(2H)-one] gave a half-inhibitory concentration (IC50) of less than 100 nM.

`C[C@@H](COCCC(=O)N1CCN(c2cnc(C(F)(F)F)s2)CC1)Nc1cn[nH]c(=O)c1C(F)(F)F` [Example 709, (S)-5-((1-(3-Oxo-3-(4-(2-(trifluoromethyl)thiazol-5-yl)piperazin-1-yl)propoxy)propan-2-yl)amino)-4-(trifluoromethyl)pyridazin-3(2H)-one] returned an IC50 of less than 100 nM.

The compound `C[C@@H](COCCC(=O)N1CCC(Nc2ncc(C(F)(F)F)cn2)C1)Nc1cn[nH]c(=O)c1C(F)(F)F` (stereo partly drawn) [Example 710, 5-(((2S)-1-(3-Oxo-3-(3-((5-(trifluoromethyl)pyrimidin-2-yl)amino)pyrrolidin-1-yl)propoxy)propan-2-yl)amino)-4-(trifluoromethyl)pyridazin-3(2H)-one] registered an IC50 of 100 to 1000 nM.

For `C[C@@H](COCCC(=O)N1CCN(c2ncc(C#N)s2)CC1)Oc1cn[nH]c(=O)c1C(F)(F)F` [Example 711, (S)-2-(4-(3-(2-((6-Oxo-5-(trifluoromethyl)-1,6-dihydropyridazin-4-yl)oxy)propoxy)propanoyl)piperazin-1-yl)thiazole-5-carbonitrile], the IC50 is less than 100 nM.

With `COC[C@@H](COCCC(=O)N1CCN(c2ncc(C(F)(F)F)s2)CC1)Nc1cn[nH]c(=O)c1C(F)(F)F` [Example 712, (S)-5-((1-Methoxy-3-(3-oxo-3-(4-(5-(trifluoromethyl)thiazol-2-yl)piperazin-1-yl)propoxy)propan-2-yl)amino)-4-(trifluoromethyl)pyridazin-3(2H)-one], the IC50 was less than 100 nM.

`COC[C@@H](COCCC(=O)N1CCN(c2ncc(C#N)s2)CC1)Nc1cn[nH]c(=O)c1C(F)(F)F` [Example 713, (S)-2-(4-(3-(3-Methoxy-2-((6-oxo-5-(trifluoromethyl)-1,6-dihydropyridazin-4-yl)amino)propoxy)propanoyl)piperazin-1-yl)thiazole-5-carbonitrile] had an IC50 of less than 100 nM.

Compound `[2H]C1([2H])N(C(=O)CCOC[C@H](C)Oc2cn[nH]c(=O)c2C(F)(F)F)C([2H])([2H])C([2H])([2H])N(c2ccc(C#N)cn2)C1([2H])[2H]` [Example 714, (S)-6-(4-(3-(2-((6-Oxo-5-(trifluoromethyl)-1,6-dihydropyridazin-4-yl)oxy)propoxy)propanoyl)piperazin-1-yl-2,2,3,3,5,5,6,6-d8)nicotinonitrile] came in with an IC50 of less than 100 nM.

`[2H]C1([2H])N(C(=O)CCOC[C@H](C)Oc2cn[nH]c(=O)c2C(F)(F)F)C([2H])([2H])C([2H])([2H])N(c2ncc(Cl)cn2)C1([2H])[2H]` [Example 715, (S)-5-((1-(3-(4-(5-Chloropyrimidin-2-yl)piperazin-1-yl-2,2,3,3,5,5,6,6-d8)-3-oxopropoxy)propan-2-yl)oxy)-4-(trifluoromethyl)pyridazin-3(2H)-one] displayed an IC50 of less than 100 nM.

With `C[C@@H](COCCC(=O)N1CCC(Oc2ncc(C(F)(F)F)cn2)C1)Nc1cn[nH]c(=O)c1C(F)(F)F` (stereo partly drawn) [Example 716, 5-(((2S)-1-(3-Oxo-3-(3-((5-(trifluoromethyl)pyrimidin-2-yl)oxy)pyrrolidin-1-yl)propoxy)propan-2-yl)amino)-4-(trifluoromethyl)pyridazin-3(2H)-one], the IC50 was less than 100 nM.

As to `C[C@@H](COCCC(=O)N1CCC(Nc2ncc(C#N)s2)C1)Nc1cn[nH]c(=O)c1C(F)(F)F` (stereo partly drawn) [Example 717, 2-((1-(3-((S)-2-((6-Oxo-5-(trifluoromethyl)-1,6-dihydropyridazin-4-yl)amino)propoxy)propanoyl)pyrrolidin-3-yl)amino)thiazole-5-carbonitrile], the IC50 is less than 100 nM.

As for `C[C@@H](COCCC(=O)N1CCC(Oc2ncc(C#N)s2)C1)Nc1cn[nH]c(=O)c1C(F)(F)F` (stereo partly drawn) [Example 718, 2-((1-(3-((S)-2-((6-Oxo-5-(trifluoromethyl)-1,6-dihydropyridazin-4-yl)amino)propoxy)propanoyl)pyrrolidin-3-yl)oxy)thiazole-5-carbonitrile], the IC50 is less than 100 nM.

`C[C@@H](COCCC(=O)N1CCC(Oc2ncc(C(F)(F)F)s2)C1)Nc1cn[nH]c(=O)c1C(F)(F)F` (stereo partly drawn) [Example 720, 5-(((2S)-1-(3-Oxo-3-(3-((5-(trifluoromethyl)thiazol-2-yl)oxy)pyrrolidin-1-yl)propoxy)propan-2-yl)amino)-4-(trifluoromethyl)pyridazin-3(2H)-one] came in with an IC50 of less than 100 nM.

Turning to `C[C@@H](COCCC(=O)N1CCN(c2ncc(Cl)s2)CC1)Nc1cn[nH]c(=O)c1C(F)(F)F` [Example 721, (S)-5-((1-(3-(4-(5-Chlorothiazol-2-yl)piperazin-1-yl)-3-oxopropoxy)propan-2-yl)amino)-4-(trifluoromethyl)pyridazin-3(2H)-one], the IC50 was less than 100 nM.

In the case of `C[C@@H](COCCC(=O)N1CCN(c2nnc(C(F)(F)F)s2)CC1)Nc1cn[nH]c(=O)c1C(F)(F)F` [Example 722, (S)-5-((1-(3-Oxo-3-(4-(5-(trifluoromethyl)-1,3,4-thiadiazol-2-yl)piperazin-1-yl)propoxy)propan-2-yl)amino)-4-(trifluoromethyl)pyridazin-3(2H)-one], the IC50 was less than 100 nM.

In turn, `C[C@@H](COCCC(=O)N1CCN(c2ncc(Cl)s2)CC1)Oc1cn[nH]c(=O)c1C(F)(F)F` [Example 723, (S)-5-((1-(3-(4-(5-Chlorothiazol-2-yl)piperazin-1-yl)-3-oxopropoxy)propan-2-yl)oxy)-4-(trifluoromethyl)pyridazin-3(2H)-one] registered an IC50 of less than 100 nM.

As for `O=c1[nH]ncc(OCCOCCS(=O)(=O)N2CCN(c3ncc(C(F)(F)F)cn3)CC2)c1C(F)(F)F` [Example 724, 4-(Trifluoromethyl)-5-(2-(2-((4-(5-(trifluoromethyl)pyrimidin-2-yl)piperazin-1-yl)sulfonyl)ethoxy)ethoxy)pyridazin-3(2H)-one], the IC50 is less than 100 nM.

`C[C@@H](COCCS(=O)(=O)N1CCN(c2ncc(C(C)(C)C)cn2)CC1)Nc1cn[nH]c(=O)c1C(F)(F)F` [Example 725, (S)-5-((1-(2-((4-(5-(Tert-butyl)pyrimidin-2-yl)piperazin-1-yl)sulfonyl)ethoxy)propan-2-yl)amino)-4-(trifluoromethyl)pyridazin-3(2H)-one] registered an IC50 of less than 100 nM.

`C[C@@H](COCCS(=O)(=O)N1CCN(c2ncc(C(F)(F)F)s2)CC1)Nc1cn[nH]c(=O)c1C(F)(F)F` [Example 726, (S)-4-(Trifluoromethyl)-5-((1-(2-((4-(5-(trifluoromethyl)thiazol-2-yl)piperazin-1-yl)sulfonyl)ethoxy)propan-2-yl)amino)pyridazin-3(2H)-one] gave an IC50 of less than 100 nM.

In the case of `CC[C@@H](COCCC(=O)N1CCN(c2ncc(Cl)cn2)CC1)Oc1cn[nH]c(=O)c1Br` [Example 727, (S)-4-Bromo-5-((1-(3-(4-(5-chloropyrimidin-2-yl)piperazin-1-yl)-3-oxopropoxy)butan-2-yl)oxy)pyridazin-3(2H)-one], the IC50 is less than 100 nM.
